Literature values in patent publication US20250000913A1, “SALMONELLA ENGINEERED FOR NONTOXIC COLONIZATION OF TUMORS” (priority 2021, published 2025).

Tests used:
[1] = in vivo
[2] = mouse, in vivo

COc1cc(C(=O)c2ccc(-c3csc(NC(=O)[C@@H](N)C(C)C)n3)cc2-n2cncn2)cc(OC)c1OC.Cl [CKD-516]
half-life of circulating CKD-516 [1]: about 5 hours

COc1cccc2c1C(=O)c1c(O)c3c(c(O)c1C2=O)C[C@@](O)(C(=O)CO)C[C@@H]3O[C@H]1C[C@H](N)[C@H](O)[C@H](C)O1 [doxorubicin]
day on which weight gain resumed [2]: 21 days
weight loss [2]: over 25%
